Converted amounts (≈) assume the structure as drawn. Where two headings read alike, the source gives them in different places.
Legend:
[1] = system: Staphylococcus aureus ATCC 29213; test: microbe, parasite or virus in culture; assay type: cell-based; settings: for MIC: Staphylococcus aureus, ATCC29213
[2] = system: Staphylococcus aureus MRSA MC-1; test: microbe, parasite or virus in culture; assay type: cell-based; settings: for MIC: Staphylococcus aureus, MRSA
Bacillus cereus = test: microbe, parasite or virus in culture; assay type: cell-based; settings: Bacillus cereus; per-compound listing, Example 6; read-out: MIC B. cereus
M. smegmatis = test: MIC assay; assay type: cell-based; settings: for MIC: Mycolicibacterium smegmatis, read-out: MIC M. smegmatis
Mycobacterium avium = test: MIC assay; assay type: cell-based; settings: for MIC: Mycobacterium avium, read-out: MIC M. avium
Mycobacterium chelonae = test: MIC assay; assay type: cell-based; settings: for MIC: read-out: MIC M. chelonae
Mycobacterium fortuitum = test: MIC assay; assay type: cell-based; settings: for MIC: Mycolicibacterium fortuitum, read-out: MIC M. fortuitum
[3] = system: Mycobacterium intracellulare; test: MIC assay; assay type: cell-based; settings: for MIC: Mycobacterium intracellulare, read-out: MIC M. intracellulare
M. kansasii = test: MIC assay; assay type: cell-based; settings: for MIC: Mycobacterium kansasii, read-out: MIC M. kansasii
C. elegans = test: motility assay; assay type: in vivo; set-up: key to Movement score, 1/1600 / Movement score, 1/800 / Movement score, 1/400 / Movement score, 1/200 / Movement score, 1/100: normal (−); slow (+); very slow (++); not motile/paralyzed (+++); settings: for Movement score, 1/100: dilution 1/100 of stock (10.24 μg/μL; SK-03-92 1.024 μg/μL); for Movement score, 1/100 / Movement score, 1/200 / Movement score, 1/400 / Movement score, 1/800 / Movement score, 1/1600: Ive 1 ng/μL in all wells; for Movement score, 1/200: dilution 1/200 of stock (10.24 μg/μL; SK-03-92 1.024 μg/μL); for Movement score, 1/400: dilution 1/400 of stock (10.24 μg/μL; SK-03-92 1.024 μg/μL); for Movement score, 1/800: dilution 1/800 of stock (10.24 μg/μL; SK-03-92 1.024 μg/μL); for Movement score, 1/1600: dilution 1/1600 of stock (10.24 μg/μL; SK-03-92 1.024 μg/μL), overnight 20° C.
C. elegans L1 larvae = test: developmental assay; assay type: in vivo; set-up: key to Developmental score, 1/1600 / Developmental score, 1/800 / Developmental score, 1/400 / Developmental score, 1/200 / Developmental score, 1/100: dead (+++); distressed (++); slightly delayed (+); the same as M9-only untreated wells (−); settings: after four days, Ive 1 ng/μL in each well; for Developmental score, 1/100: dilution 1/100; for Developmental score, 1/200: dilution 1/200; for Developmental score, 1/400: dilution 1/400; for Developmental score, 1/800: dilution 1/800; for Developmental score, 1/1600: dilution 1/1600
[4] = Table 6, read-out: MIC S. aureus ATCC 29213
[5] = per-compound listing, Example 6, read-out: MIC S. aureus
[6] = per-compound listing, Example 6

Compound	MIC [1, 4] [µg/mL]	MIC ([2]; read-out: MIC S. aureus MC-1) [µg/mL]	MIC M. smegmatis (M. smegmatis; Table 6) [µg/mL]	MIC (Mycobacterium avium; Table 6) [µg/mL]	MIC (Mycobacterium chelonae; Table 6) [µg/mL]	MIC (Mycobacterium fortuitum; Table 6) [µg/mL]	MIC ([3]; Table 6) [µg/mL]	MIC (M. kansasii; Table 6) [µg/mL]	Movement score, 1/100 (C. elegans)	Movement score, 1/200 (C. elegans)	Movement score, 1/400 (C. elegans)	Movement score, 1/800 (C. elegans)	Movement score, 1/1600 (C. elegans)	MIC S. aureus ATCC 29213 ([1]; Table 6) [µg/mL]	MIC S. aureus MC-1 ([2]; Table 6) [µg/mL]	MIC M. avium (Mycobacterium avium; Table 6) [µg/mL]	MIC M. chelonae (Mycobacterium chelonae; Table 6) [µg/mL]	MIC M. fortuitum (Mycobacterium fortuitum; Table 6) [µg/mL]	MIC M. intracellulare ([3]; Table 6) [µg/mL]	MIC (M. smegmatis; Table 6) [µg/mL]	also measured
COc1cc(O)cc(/C=C/Oc2cccc3ccccc23)c1 [SK-04-22]	16 (≈ 54.7 µM)	16 (≈ 54.7 µM)	128 (≈ 438 µM)	64 (≈ 219 µM)	256 (≈ 876 µM)	128 (≈ 438 µM)	128 (≈ 438 µM)	64 (≈ 219 µM)	++	+	+	−	−								MIC [1, 5]: 32 µg/mL (≈ 109 µM); MIC ([2]; read-out: MIC MRSA): 16 µg/mL (≈ 54.7 µM); MIC (Bacillus cereus): 8 µg/mL (≈ 27.4 µM); MIC (M. smegmatis; [6]): 128 µg/mL (≈ 438 µM)
CCOC(=O)/C=C\Sc1nc2ccccc2s1 [SK-04-59F]			16 to 32											>512	>512	64 (≈ 241 µM)	8 (≈ 30.1 µM)	16 (≈ 60.3 µM)	16 (≈ 60.3 µM)		MIC M. kansasii (M. kansasii; Table 6): 8 µg/mL (≈ 30.1 µM)
N#Cc1cccc(/C=C/Sc2ncccn2)c1 [SK-04-73]			64 (≈ 267 µM)											512 (≈ 2140 µM)	>512	512 (≈ 2140 µM)	256 (≈ 1070 µM)	256 (≈ 1070 µM)	512 (≈ 2140 µM)		MIC M. kansasii (M. kansasii; Table 6): 128 µg/mL (≈ 535 µM)
CCOC(=O)/C=C\Sc1ccccc1C(=O)OC [SK-04-56]	> 512	> 512		64 (≈ 240 µM)	64 (≈ 240 µM)	64 (≈ 240 µM)	256 (≈ 961 µM)	64 (≈ 240 µM)												64 (≈ 240 µM)	
COc1cc(O)cc(/C=C/c2cccc(O)c2)c1 [SK-04-03]	32 (≈ 132 µM)	16 (≈ 66 µM)		8 (≈ 33 µM)	64 (≈ 264 µM)	64 (≈ 264 µM)	16 (≈ 66 µM)	64 (≈ 264 µM)	++	++	+	+	−							64 (≈ 264 µM)	Developmental score, 1/100 (C. elegans L1 larvae): +++; Developmental score, 1/200 (C. elegans L1 larvae): +; Developmental score, 1/400 (C. elegans L1 larvae): −; Developmental score, 1/800 (C. elegans L1 larvae): −; Developmental score, 1/1600 (C. elegans L1 larvae): −
COc1cc(O)cc(/C=C/Oc2ccc3ccccc3c2)c1 [SK-04-23]	8 (≈ 27.4 µM)	8 (≈ 27.4 µM)	128 (≈ 438 µM)	64 (≈ 219 µM)	128 (≈ 438 µM)	128 (≈ 438 µM)	64 (≈ 219 µM)	64 (≈ 219 µM)	++	++	++	++	+								MIC [1, 5]: 16 µg/mL (≈ 54.7 µM); MIC ([2]; read-out: MIC MRSA): 8 µg/mL (≈ 27.4 µM); MIC (Bacillus cereus): 8 µg/mL (≈ 27.4 µM); MIC (M. smegmatis; [6]): 128 µg/mL (≈ 438 µM); effect on worms at the lowest concentrations tested (C. elegans; lowest concentrations tested, at least triplicate): reduced motility, paralysis, or death; Developmental score, 1/100 (C. elegans L1 larvae): +++; Developmental score, 1/200 (C. elegans L1 larvae): +++; Developmental score, 1/400 (C. elegans L1 larvae): +; Developmental score, 1/800 (C. elegans L1 larvae): −; Developmental score, 1/1600 (C. elegans L1 larvae): −
COc1cc(O)cc(C#Cc2ccccc2)c1 [SK-04-08]	32 (≈ 143 µM)	1 (≈ 4.46 µM)		16 (≈ 71.3 µM)		32 (≈ 143 µM)	16 (≈ 71.3 µM)	32 (≈ 143 µM)	+++	+++	++	+	+							64 (≈ 285 µM)	Developmental score, 1/100 (C. elegans L1 larvae): +++; Developmental score, 1/200 (C. elegans L1 larvae): +++; Developmental score, 1/400 (C. elegans L1 larvae): −; Developmental score, 1/800 (C. elegans L1 larvae): −; Developmental score, 1/1600 (C. elegans L1 larvae): −
CCOC(=O)/C=C\Sc1ncccn1 [SK-04-58F]			64 (≈ 304 µM)											>512	>512	64 (≈ 304 µM)	32 (≈ 152 µM)	64 (≈ 304 µM)	128 (≈ 609 µM)		MIC M. kansasii (M. kansasii; Table 6): 64 µg/mL (≈ 304 µM)
CCOC(=O)/C=C\Sc1ccc(C(C)(C)C)cc1 [SK-04-57]	> 512	> 512		64 (≈ 242 µM)	8 (≈ 30.3 µM)	4 (≈ 15.1 µM)	128 (≈ 484 µM)	16 (≈ 60.5 µM)	+	−	−	−	−							16 (≈ 60.5 µM)	
COc1cc(O)cc(/C=C/c2ccc(O)cc2)c1 [SK-04-02]	32 (≈ 132 µM)																				MIC ([2]; Table 6, read-out: MIC S. aureus MC-1): 32 µg/mL (≈ 132 µM); MIC (M. smegmatis): 64 µg/mL (≈ 264 µM); MIC (Mycobacterium avium): 16 µg/mL (≈ 66 µM); MIC (Mycobacterium chelonae): 32 µg/mL (≈ 132 µM); MIC (Mycobacterium fortuitum): 64 µg/mL (≈ 264 µM); MIC [3]: 16 µg/mL (≈ 66 µM); MIC (M. kansasii): 32 µg/mL (≈ 132 µM)

Source: patent US8530512B2, “Broad spectrum gram-positive antimicrobials and anthelmintics with efficacy against drug-resistant strains and Mycobacterium species” (priority 2004, dated 2013)
